# Assay results as given in patent EP1967187A1, “Composition based on rutin and L-lysine” (Ennamany, Rachid, priority 2007, dated 2008).
# Target: T1, arginase Th2-dépendante (Homo sapiens, UniProt P05089)
# T1 sequence (P05089 1-322): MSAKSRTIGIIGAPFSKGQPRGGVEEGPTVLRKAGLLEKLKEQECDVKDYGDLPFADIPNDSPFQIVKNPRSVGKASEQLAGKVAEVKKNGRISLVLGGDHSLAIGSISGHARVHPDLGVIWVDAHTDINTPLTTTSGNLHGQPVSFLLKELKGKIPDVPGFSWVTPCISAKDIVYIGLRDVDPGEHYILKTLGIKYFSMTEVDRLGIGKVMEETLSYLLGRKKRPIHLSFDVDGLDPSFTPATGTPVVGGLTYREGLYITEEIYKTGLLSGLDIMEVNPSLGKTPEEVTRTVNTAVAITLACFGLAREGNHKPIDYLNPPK
# Assay: Inhibition of Th2-dependent arginase
# Type: biochemical
smiles,measurement,value
"NCCCC[C@H](N)C(=O)O [L-Lysine, L-lysine]",action sur l'arginase Th2-dépendante,action inhibitrice
